{"source": "patent US20190314382A1", "about": "“COMPOUNDS AND PHARMACEUTICAL COMPOSITIONS THEREOF FOR THE TREATMENT OF INFLAMMATORY DISEASES” (Galapagos NV, priority 2016, published 2019)", "type_in_all_cases": "in vivo, human", "details_in_all_cases": "observed case", "key": {"[1]": {"system": "IL-6", "assay": "Biomarker study in RA subjects: serum IL-6, Luminex 18-Plex", "experimental": "(§1) Double-blind, placebo-controlled add on study in subjects with moderately to severely active RA who have an inadequate response to MTX (oral or parenteral).\n(§2) 595 subjects randomized to one of 6 dose regimens of Compound 1 (dosed as a [Compound 1:HCl:3H2O]) (3 dose levels administered either once or twice daily) or placebo on top of each subject's stable dose of MTX.\n(§3) Compound 1 (dosed as a [Compound 1:HCl:3H2O]) is dosed for twelve weeks once daily (q.d.) (50 mg, 100 mg or 200 mg) or twice daily (b.i.d.) (25 mg, 50 mg or 100 mg); or placebo.\n(§4) 18 parameters from human serum samples (GM-CSF, IFNγ, IL-1β, IL-2, IL-4, IL-5, IL-6, IL-7, IL-8, IL-10, IL-12 (p70), IL-13, IL-17A, IL-21, IL-23, MIP-1α, MIP-1β and TNF-α) are analyzed on a Luminex Plateform (BioPlex® L200) using a Luminex 18-Plex Kit (Millipore: HSTCMAG-28SK).\n(§5) Coupled beads react with the sample containing the biomarker of interest. […] Phycoerythrin (PE) serves as a fluorescent indicator.\n(§6) The concentration of bead bound analyte is proportional to the MFI (Median Fluorescent Intensity) and back-calculated from interpolation with the calibration curve fitted with a 4 or 5 parameters logistic (4PL or 5PL) regression model selected during method pre-validation.\n(§7) Treatment effect was assessed using an ANCOVA model on the changes from baseline, with factors: treatment, baseline value of the PD marker, geographical region and previous use of biologics."}, "[2]": {"system": "IL-21", "assay": "Biomarker study in RA subjects: serum IL-21, Luminex 18-Plex", "experimental": "as §1, §2, §3, §4, §5, §6, §7"}, "[3]": {"system": "TNF-α", "assay": "Biomarker study in RA subjects: serum TNF-α, Luminex 18-Plex", "experimental": "as §1, §2, §3, §4, §5, §6, §7"}, "[4]": {"system": "IL-13", "assay": "Biomarker study in RA subjects: serum IL-13, Luminex 18-Plex", "experimental": "as §1, §2, §3, §4, §5, §6, §7"}, "[5]": {"system": "GM-CSF", "assay": "Biomarker study in RA subjects: serum GM-CSF, Luminex 18-Plex", "experimental": "as §1, §2, §3, §4, §5, §6, §7"}, "[6]": {"details": "50 mg bid, Week 4, N = 73, RA subjects on MTX"}, "[7]": {"details": "50 mg bid, Week 12, N = 73, RA subjects on MTX"}, "[8]": {"details": "100 mg bid, Week 4, N = 79, RA subjects on MTX"}, "[9]": {"details": "100 mg bid, Week 12, N = 79, RA subjects on MTX"}, "[10]": {"details": "100 mg qd, Week 4, N = 68, RA subjects on MTX"}, "[11]": {"details": "100 mg qd, Week 12, N = 68, RA subjects on MTX"}, "[12]": {"details": "200 mg qd, Week 4, N = 75, RA subjects on MTX"}, "[13]": {"details": "200 mg qd, Week 12, N = 75, RA subjects on MTX"}}, "data": [{"compound": "O=C(Nc1nc2cccc(-c3ccc(CN4CCS(=O)(=O)CC4)cc3)n2n1)C1CC1", "note": "[Compound 1, cyclopropanecarboxylic acid {5-[4-(1,1-dioxo-thiomorpholin-4-ylmethyl)-phenyl]-[1,2,4]triazolo[1,5-a]pyridin-2yl}-amide]", "values": [{"measurement": "IL-6 Mean change from baseline at Week 4", "setting": "[1]; [6]", "value": -4.2, "unit": "pg/mL"}, {"measurement": "IL-6 Mean change from baseline at Week 12", "setting": "[1]; [7]", "value": -6.0, "unit": "pg/mL"}, {"measurement": "IL-6 Mean change from baseline at Week 4", "setting": "[1]; [8]", "value": -11.0, "unit": "pg/mL"}, {"measurement": "IL-6 Mean change from baseline at Week 12", "setting": "[1]; [9]", "value": -14.1, "unit": "pg/mL"}, {"measurement": "IL-6 Mean change from baseline at Week 4", "setting": "[1]; [10]", "value": -7.0, "unit": "pg/mL"}, {"measurement": "IL-6 Mean change from baseline at Week 12", "setting": "[1]; [11]", "value": -8.0, "unit": "pg/mL"}, {"measurement": "IL-6 Mean change from baseline at Week 4", "setting": "[1]; [12]", "value": -9.6, "unit": "pg/mL"}, {"measurement": "IL-6 Mean change from baseline at Week 12", "setting": "[1]; [13]", "value": -11.2, "unit": "pg/mL"}, {"measurement": "IL-21 Mean change from baseline at Week 4", "setting": "[2]; [6]", "value": -0.1, "unit": "pg/mL"}, {"measurement": "IL-21 Mean change from baseline at Week 12", "setting": "[2]; [7]", "value": -1.6, "unit": "pg/mL"}, {"measurement": "IL-21 Mean change from baseline at Week 4", "setting": "[2]; [8]", "value": -1.6, "unit": "pg/mL"}, {"measurement": "IL-21 Mean change from baseline at Week 12", "setting": "[2]; [9]", "value": -2.8, "unit": "pg/mL"}, {"measurement": "IL-21 Mean change from baseline at Week 4", "setting": "[2]; [10]", "value": -0.3, "unit": "pg/mL"}, {"measurement": "IL-21 Mean change from baseline at Week 12", "setting": "[2]; [11]", "value": 0.5, "unit": "pg/mL"}, {"measurement": "IL-21 Mean change from baseline at Week 4", "setting": "[2]; [12]", "value": -1.4, "unit": "pg/mL"}, {"measurement": "IL-21 Mean change from baseline at Week 12", "setting": "[2]; [13]", "value": -2.3, "unit": "pg/mL"}, {"measurement": "TNFα Mean change from baseline at Week 4", "setting": "[3]; [6]", "value": -0.2, "unit": "pg/mL"}, {"measurement": "TNFα Mean change from baseline at Week 12", "setting": "[3]; [7]", "value": 0.3, "unit": "pg/mL"}, {"measurement": "TNFα Mean change from baseline at Week 4", "setting": "[3]; [8]", "value": -1.7, "unit": "pg/mL"}, {"measurement": "TNFα Mean change from baseline at Week 12", "setting": "[3]; [9]", "value": -2.2, "unit": "pg/mL"}, {"measurement": "TNFα Mean change from baseline at Week 4", "setting": "[3]; [10]", "value": 1.0, "unit": "pg/mL"}, {"measurement": "TNFα Mean change from baseline at Week 12", "setting": "[3]; [11]", "value": -1.0, "unit": "pg/mL"}, {"measurement": "TNFα Mean change from baseline at Week 4", "setting": "[3]; [12]", "value": 0.0, "unit": "pg/mL"}, {"measurement": "TNFα Mean change from baseline at Week 12", "setting": "[3]; [13]", "value": -1.2, "unit": "pg/mL"}, {"measurement": "IL-13 Mean change from baseline at Week 4", "setting": "[4]; [6]", "value": -0.6, "unit": "pg/mL"}, {"measurement": "IL-13 Mean change from baseline at Week 12", "setting": "[4]; [7]", "value": -1.1, "unit": "pg/mL"}, {"measurement": "IL-13 Mean change from baseline at Week 4", "setting": "[4]; [8]", "value": -1.5, "unit": "pg/mL"}, {"measurement": "IL-13 Mean change from baseline at Week 12", "setting": "[4]; [9]", "value": -2.9, "unit": "pg/mL"}, {"measurement": "IL-13 Mean change from baseline at Week 4", "setting": "[4]; [10]", "value": -0.6, "unit": "pg/mL"}, {"measurement": "IL-13 Mean change from baseline at Week 12", "setting": "[4]; [11]", "value": -1.5, "unit": "pg/mL"}, {"measurement": "IL-13 Mean change from baseline at Week 4", "setting": "[4]; [12]", "value": -0.9, "unit": "pg/mL"}, {"measurement": "IL-13 Mean change from baseline at Week 12", "setting": "[4]; [13]", "value": -2.2, "unit": "pg/mL"}, {"measurement": "GM-CSF Mean change from baseline at Week 4", "setting": "[5]; [6]", "value": -5.4, "unit": "pg/mL"}, {"measurement": "GM-CSF Mean change from baseline at Week 12", "setting": "[5]; [7]", "value": -14.4, "unit": "pg/mL"}, {"measurement": "GM-CSF Mean change from baseline at Week 4", "setting": "[5]; [8]", "value": -12.4, "unit": "pg/mL"}, {"measurement": "GM-CSF Mean change from baseline at Week 12", "setting": "[5]; [9]", "value": -21.1, "unit": "pg/mL"}, {"measurement": "GM-CSF Mean change from baseline at Week 4", "setting": "[5]; [10]", "value": -9.3, "unit": "pg/mL"}, {"measurement": "GM-CSF Mean change from baseline at Week 12", "setting": "[5]; [11]", "value": -19.5, "unit": "pg/mL"}, {"measurement": "GM-CSF Mean change from baseline at Week 4", "setting": "[5]; [12]", "value": -8.4, "unit": "pg/mL"}, {"measurement": "GM-CSF Mean change from baseline at Week 12", "setting": "[5]; [13]", "value": -15.0, "unit": "pg/mL"}]}]}
